Results published in patent US9833497B2, “Human originated EGF domain proteins and use of the same” (CHENGDU SOURCEBIO LIMITED-LIABILITY COMPANY, priority 2013, dated 2017).

How the values were obtained:
Type in all cases: cell-based
E. coli BL21 = experiment: MIC against Gram-negative bacteria: E. coli BL21; details: E. coli BL21
Summary of the method: (§1)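 Bacteria grown in LB at 37° C with shaking to McFarland 0.5, pelleted and resuspended in fresh LB, then seeded at 5×10^5 CFU/mL per well. Purified recombinant human EGF domain proteins were two-fold serially diluted in triplicate and plates shaken at 37° C, 175 rpm. MIC is the lowest protein concentration with no bacterial growth.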

Moraxella catarrhalis = experiment: MIC against Gram-negative bacteria: Moraxella catarrhalis
Summary of the method: as §1

Pseudomonas aeruginosa = experiment: MIC against Gram-negative bacteria: Pseudomonas aeruginosa
Summary of the method: as §1

Serratia marcescens = experiment: MIC against Gram-negative bacteria: Serratia marcescens
Summary of the method: as §1

Citrobacter diversus = experiment: MIC against Gram-negative bacteria: Citrobacter diversus
Summary of the method: as §1

E. coli DH5α = experiment: Antibacterial activity: MIC and growth curve against E. coli DH5α in 96-well plate; details: minimal inhibitory concentration against E. coli DH5α; 96-well plate, 5×10^5 CFU/mL, 37° C., judged after 8 h
Summary of the method: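 Log-phase DH5α (OD600 about 0.5, 37° C, 185 rpm in LB) was pelleted, resuspended in fresh LB and seeded at 5×10^5 CFU/mL with recombinant protein at 50, 25 and 12.5 μg/mL (two-fold series), in triplicate. Plates were shaken at 175 rpm, 37° C, and OD600 was read every 30 min. MIC was the lowest concentration with no growth.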

Enterobacter cloacae = experiment: MIC against Gram-negative bacteria: Enterobacter cloacae
Summary of the method: as §1

Proteus vulgaris = experiment: MIC against Gram-negative bacteria: Proteus vulgaris
Summary of the method: as §1

Klebsiella pneumonia = experiment: MIC against Gram-negative bacteria: Klebsiella pneumonia
Summary of the method: as §1

Aeromonas hydrophila = experiment: MIC against Gram-negative bacteria: Aeromonas hydrophila
Summary of the method: as §1

Proteus mirabilis = experiment: MIC against Gram-negative bacteria: Proteus mirabilis
Summary of the method: as §1

[1] = 10 h cultivation at 37° C., 5×10^5 CFU/mL
[2] = M. catarrhalis, 10 h cultivation at 37° C., 5×10^5 CFU/mL
[3] = P. aeruginosa, 10 h cultivation at 37° C., 5×10^5 CFU/mL
[4] = S. marcescens, 10 h cultivation at 37° C., 5×10^5 CFU/mL
[5] = C. diversus, 10 h cultivation at 37° C., 5×10^5 CFU/mL
[6] = E. cloacae, 10 h cultivation at 37° C., 5×10^5 CFU/mL
[7] = P. vulgaris, 10 h cultivation at 37° C., 5×10^5 CFU/mL
[8] = K. pneumonia, 10 h cultivation at 37° C., 5×10^5 CFU/mL
[9] = A. hydrophila, 10 h cultivation at 37° C., 5×10^5 CFU/mL
[10] = P. mirabilis, 10 h cultivation at 37° C., 5×10^5 CFU/mL
[11] = 96-well plate, 5×10^5 CFU/mL, 37° C., 10 h
[12] = Moraxella catarrhalis, 96-well plate, 5×10^5 CFU/mL, 37° C., 10 h
[13] = Pseudomonas aeruginosa, 96-well plate, 5×10^5 CFU/mL, 37° C., 10 h
[14] = Serratia marcescens, 96-well plate, 5×10^5 CFU/mL, 37° C., 10 h
[15] = Citrobacter diversus, 96-well plate, 5×10^5 CFU/mL, 37° C., 10 h
[16] = Enterobacter cloacae, 96-well plate, 5×10^5 CFU/mL, 37° C., 10 h
[17] = Proteus vulgaris, 96-well plate, 5×10^5 CFU/mL, 37° C., 10 h
[18] = Klebsiella pneumonia, 96-well plate, 5×10^5 CFU/mL, 37° C., 10 h
[19] = Aeromonas hydrophila, 96-well plate, 5×10^5 CFU/mL, 37° C., 10 h
[20] = Proteus mirabilis, 96-well plate, 5×10^5 CFU/mL, 37° C., 10 h

Substance: PRT1383 (GTRSCPWDCGEGGRCVDGRCVCWPGYTGEDC; listed as Homo sapiens)
- MIC against E. coli BL21 (E. coli BL21; 5×10^5 CFU/mL, 10 h cultivation at 37° C.): 12.5 µg/mL
- MIC against M. catarrhalis (Moraxella catarrhalis; Moraxella catarrhalis, 5×10^5 CFU/mL, 10 h cultivation at 37° C.): 12.5 µg/mL
- MIC against P. aeruginosa (Pseudomonas aeruginosa; Pseudomonas aeruginosa, 5×10^5 CFU/mL, 10 h cultivation at 37° C.): 12.5 µg/mL
- MIC against S. marcescens (Serratia marcescens; Serratia marcescens, 5×10^5 CFU/mL, 10 h cultivation at 37° C.): 50 µg/mL
- MIC against C. diversus (Citrobacter diversus; Citrobacter diversus, 5×10^5 CFU/mL, 10 h cultivation at 37° C.): 25 µg/mL
- MIC (E. coli DH5α): 12.5 µg/mL
- MIC against E. cloacae (Enterobacter cloacae; Enterobacter cloacae, 5×10^5 CFU/mL, 10 h cultivation at 37° C.): 12.5 µg/mL
- MIC against P. vulgaris (Proteus vulgaris; Proteus vulgaris, 5×10^5 CFU/mL, 10 h cultivation at 37° C.): 12.5 µg/mL
- MIC against K. pneumonia (Klebsiella pneumonia; Klebsiella pneumonia, 5×10^5 CFU/mL, 10 h cultivation at 37° C.): 25 µg/mL
- MIC against A. hydrophila (Aeromonas hydrophila; Aeromonas hydrophila, 5×10^5 CFU/mL, 10 h cultivation at 37° C.): 50 µg/mL
- MIC against P. mirabilis (Proteus mirabilis; Proteus mirabilis, 5×10^5 CFU/mL, 10 h cultivation at 37° C.): 50 µg/mL

Substance: PRT428 (DVNECWASPGRLCQHTCENTLGSYRCSCASGFLLAADGKRCE; listed as Homo sapiens)
- MIC (E. coli BL21; [1]): 25 µg/mL
- MIC (Moraxella catarrhalis; [2]): 50 µg/mL
- MIC (Pseudomonas aeruginosa; [3]): 12.5 µg/mL
- MIC (Serratia marcescens; [4]): 12.5 µg/mL
- MIC (Citrobacter diversus; [5]): 12.5 µg/mL
- MIC (E. coli DH5α): 50 µg/mL
- MIC (Enterobacter cloacae; [6]): 50 µg/mL
- MIC (Proteus vulgaris; [7]): 50 µg/mL
- MIC (Klebsiella pneumonia; [8]): 25 µg/mL
- MIC (Aeromonas hydrophila; [9]): 25 µg/mL
- MIC (Proteus mirabilis; [10]): 12.5 µg/mL

Substance: PRT131 (AGHCSTYGHLCRNGGRCREKRRGVTCDCAFSAYDGPFCS; listed as Homo sapiens)
- MIC (μg/mL) E. coli BL21 (E. coli BL21; [11]): 12.5 µg/mL
- MIC (μg/mL) M. catarrhalis (Moraxella catarrhalis; [12]): 25 µg/mL
- MIC (μg/mL) P. aeruginosa (Pseudomonas aeruginosa; [13]): 12.5 µg/mL
- MIC (μg/mL) S. marcescens (Serratia marcescens; [14]): 12.5 µg/mL
- MIC (μg/mL) C. diversus (Citrobacter diversus; [15]): 12.5 µg/mL
- MIC (E. coli DH5α): 50 µg/mL
- MIC (μg/mL) E. cloacae (Enterobacter cloacae; [16]): 12.5 µg/mL
- MIC (μg/mL) P. vulgaris (Proteus vulgaris; [17]): 25 µg/mL
- MIC (μg/mL) K. pneumonia (Klebsiella pneumonia; [18]): 12.5 µg/mL
- MIC (μg/mL) A. hydrophila (Aeromonas hydrophila; [19]): 12.5 µg/mL
- MIC (μg/mL) P. mirabilis (Proteus mirabilis; [20]): 100 µg/mL

Substance: PRT822 (VRAGCRHSGGCLNGGLCDPHTGRCLCPAGWTGDKCQ; listed as Homo sapiens)
- MIC (μg/mL) E. coli BL21 (E. coli BL21; [1]): 25 µg/mL
- MIC (μg/mL) M. catarrhalis (Moraxella catarrhalis; [2]): 12.5 µg/mL
- MIC (μg/mL) P. aeruginosa (Pseudomonas aeruginosa; [3]): 50 µg/mL
- MIC (μg/mL) S. marcescens (Serratia marcescens; [4]): 12.5 µg/mL
- MIC (μg/mL) C. diversus (Citrobacter diversus; [5]): 12.5 µg/mL
- MIC (E. coli DH5α): 12.5 µg/mL
- MIC (μg/mL) E. cloacae (Enterobacter cloacae; [6]): 50 µg/mL
- MIC (μg/mL) P. vulgaris (Proteus vulgaris; [7]): 12.5 µg/mL
- MIC (μg/mL) K. pneumonia (Klebsiella pneumonia; [8]): 12.5 µg/mL
- MIC (μg/mL) A. hydrophila (Aeromonas hydrophila; [9]): 12.5 µg/mL
- MIC (μg/mL) P. mirabilis (Proteus mirabilis; [10]): 25 µg/mL

Substance: PRT1251 (CAFVCADCGSGHCDFQSGRCLCSPGVHGPHCN; listed as Homo sapiens)
- MIC against E. coli BL21 (E. coli BL21; [11]): 25 µg/mL
- MIC against M. catarrhalis (Moraxella catarrhalis; [12]): 25 µg/mL
- MIC against P. aeruginosa (Pseudomonas aeruginosa; [13]): 50 µg/mL
- MIC against S. marcescens (Serratia marcescens; [14]): 50 µg/mL
- MIC against C. diversus (Citrobacter diversus; [15]): 50 µg/mL
- MIC (E. coli DH5α): 100 µg/mL
- MIC against E. cloacae (Enterobacter cloacae; [16]): 12.5 µg/mL
- MIC against P. vulgaris (Proteus vulgaris; [17]): 25 µg/mL
- MIC against K. pneumonia (Klebsiella pneumonia; [18]): 25 µg/mL
- MIC against A. hydrophila (Aeromonas hydrophila; [19]): 25 µg/mL
- MIC against P. mirabilis (Proteus mirabilis; [20]): 12.5 µg/mL

Substance: PRT949 (FVDVCPQMPCLNGGTCAVASNMPDGFICRCPPGFSGARCQ; listed as Homo sapiens)
- MIC (E. coli BL21; 10 h cultivation at 37° C.): 25 µg/mL
- MIC (Moraxella catarrhalis; M. catarrhalis, 10 h cultivation at 37° C.): 25 µg/mL
- MIC (Pseudomonas aeruginosa; P. aeruginosa, 10 h cultivation at 37° C.): 50 µg/mL
- MIC (Serratia marcescens; S. marcescens, 10 h cultivation at 37° C.): 25 µg/mL
- MIC (Citrobacter diversus; C. diversus, 10 h cultivation at 37° C.): 12.5 µg/mL
- MIC (E. coli DH5α): 12.5 µg/mL
- MIC (Enterobacter cloacae; E. cloacae, 10 h cultivation at 37° C.): 12.5 µg/mL
- MIC (Proteus vulgaris; P. vulgaris, 10 h cultivation at 37° C.): 12.5 µg/mL
- MIC (Klebsiella pneumonia; K. pneumonia, 10 h cultivation at 37° C.): 25 µg/mL
- MIC (Aeromonas hydrophila; A. hydrophila, 10 h cultivation at 37° C.): 50 µg/mL
- MIC (Proteus mirabilis; P. mirabilis, 10 h cultivation at 37° C.): 50 µg/mL

Substance: PRT876 (TAKPCLSNPCKNNGMCRDGWNRYVCDCSGTGYLGRSCE; listed as Homo sapiens)
- MIC (μg/mL) E. coli BL21 (E. coli BL21; [1]): 12.5 µg/mL
- MIC (μg/mL) M. catarrhalis (Moraxella catarrhalis; [2]): 12.5 µg/mL
- MIC (μg/mL) P. aeruginosa (Pseudomonas aeruginosa; [3]): 12.5 µg/mL
- MIC (μg/mL) S. marcescens (Serratia marcescens; [4]): 25 µg/mL
- MIC (μg/mL) C. diversus (Citrobacter diversus; [5]): 25 µg/mL
- MIC (E. coli DH5α): 12.5 µg/mL
- MIC (μg/mL) E. cloacae (Enterobacter cloacae; [6]): 25 µg/mL
- MIC (μg/mL) P. vulgaris (Proteus vulgaris; [7]): 25 µg/mL
- MIC (μg/mL) K. pneumonia (Klebsiella pneumonia; [8]): 12.5 µg/mL
- MIC (μg/mL) A. hydrophila (Aeromonas hydrophila; [9]): 12.5 µg/mL
- MIC (μg/mL) P. mirabilis (Proteus mirabilis; [10]): 25 µg/mL

Substance: PRT788 (WGPHCTSRCQCKNGALCNPITGACHCAAGFRGWRCE; listed as Homo sapiens)
- MIC (μg/mL) E. coli BL21 (E. coli BL21; [1]): 100 µg/mL
- MIC (μg/mL) M. catarrhalis (Moraxella catarrhalis; [2]): 25 µg/mL
- MIC (μg/mL) P. aeruginosa (Pseudomonas aeruginosa; [3]): 50 µg/mL
- MIC (μg/mL) S. marcescens (Serratia marcescens; [4]): 50 µg/mL
- MIC (μg/mL) C. diversus (Citrobacter diversus; [5]): 50 µg/mL
- MIC (E. coli DH5α): 50 µg/mL
- MIC (μg/mL) E. cloacae (Enterobacter cloacae; [6]): 12.5 µg/mL
- MIC (μg/mL) P. vulgaris (Proteus vulgaris; [7]): 50 µg/mL
- MIC (μg/mL) K. pneumonia (Klebsiella pneumonia; [8]): 25 µg/mL
- MIC (μg/mL) A. hydrophila (Aeromonas hydrophila; [9]): 25 µg/mL
- MIC (μg/mL) P. mirabilis (Proteus mirabilis; [10]): 12.5 µg/mL

Substance: PRT399 (DVDECRMLAHLCAHGECINSLGSFRCHCQAGYTPDATATTCL; listed as Homo sapiens)
- MIC (E. coli BL21; [1]): 50 µg/mL
- MIC (Moraxella catarrhalis; [2]): 50 µg/mL
- MIC (Pseudomonas aeruginosa; [3]): 12.5 µg/mL
- MIC (Serratia marcescens; [4]): 12.5 µg/mL
- MIC (Citrobacter diversus; [5]): 12.5 µg/mL
- MIC (E. coli DH5α): 12.5 µg/mL
- MIC (Enterobacter cloacae; [6]): 12.5 µg/mL
- MIC (Proteus vulgaris; [7]): 50 µg/mL
- MIC (Klebsiella pneumonia; [8]): 50 µg/mL
- MIC (Aeromonas hydrophila; [9]): 50 µg/mL
- MIC (Proteus mirabilis; [10]): 12.5 µg/mL

Substance: PRT1301 (DNDDCVAHKCRHGAQCVDTINGYTCTCPQGFSGPFCE; listed as Homo sapiens)
- MIC against E. coli BL21 (E. coli BL21; [11]): 12.5 µg/mL
- MIC against M. catarrhalis (Moraxella catarrhalis; [12]): 50 µg/mL
- MIC against P. aeruginosa (Pseudomonas aeruginosa; [13]): 12.5 µg/mL
- MIC against S. marcescens (Serratia marcescens; [14]): 50 µg/mL
- MIC against C. diversus (Citrobacter diversus; [15]): 12.5 µg/mL
- MIC (E. coli DH5α): 12.5 µg/mL
- MIC against E. cloacae (Enterobacter cloacae; [16]): 50 µg/mL
- MIC against P. vulgaris (Proteus vulgaris; [17]): 25 µg/mL
- MIC against K. pneumonia (Klebsiella pneumonia; [18]): 12.5 µg/mL
- MIC against A. hydrophila (Aeromonas hydrophila; [19]): 25 µg/mL
- MIC against P. mirabilis (Proteus mirabilis; [20]): 12.5 µg/mL
